According to patent US20140186329A1, “POLYPHENOL ANALOGS TO TREAT ISCHEMIA” (priority 2011, published 2014):

Columns and labels:
HT22 cells = test: Maintenance of total GSH in the presence of glutamate; assay type: cell-based, mouse; conditions: derivative 1-10 μM, 5 mM glutamate, 24 hr
Method in brief: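 HT22 cells treated 24 hr with each derivative at 1-10 μM plus 5 mM glutamate, then extracts analysed for total GSH by chemical assay. Fisetin (10 μM) served as positive control.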

PC12 cells = test: PC12 cell differentiation (neurite outgrowth); assay type: cell-based; conditions: N2 medium, derivative 1-10 μM, 24 hr, visual inspection
Method in brief: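 PC12 cells in N2 medium were exposed to derivatives (1-10 μM) for 24 hr, with Fisetin (10 μM) as positive control. Cells counted as positive if bearing ≥1 neurite longer than one cell body diameter; 100 cells scored in each of three fields per treatment.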

[1] = TEAC, ABTS decolorization assay; conditions: relative to Trolox
Method in brief: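 Compound in ethanol added to persulfate-generated ABTS radical cation (OD ~0.7 at 734 nm); absorbance decrease followed at 734 nm for 4 min. TEAC is the slope of percent absorbance inhibition versus concentration divided by the corresponding Trolox slope.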

Nrf2 = Nrf2 induction, SDS-PAGE and Western blotting of nuclear extracts; assay type: cell-based; conditions: cells treated 1, 2 and 4 hr
Procedure: For immunoblotting of Nrf2, nuclear extracts were prepared as described (Schreiber, et al., Nucleic Acids Res. (1989) 17 (15), 6419) from untreated cells and cells treated with the Fisetin derivatives for 1, 2 and 4 hr. Fisetin was used as a positive control. […] Protein concentrations were determined using the BCA protein assay (Pierce). Equal amounts of protein were solubilized in 2.5×SDS-sample buffer, separated on 10% SDS-polyacrylamide gels and transferred to nitrocellulose. Equal loading and transfer of the samples was confirmed by staining the nitrocellulose with Ponceau-S. Transfers were blocked for 1 hr at room temperature with 5% nonfat milk in TBS/0.1% Tween 20 and then incubated overnight at 4° C. in the primary antibody diluted in 5% BSA in TBS/0.05% Tween 20. The primary antibodies used were: anti-Nrf2 (#SC13032; 1/1000) from Santa Cruz Biotechnology (Santa Cruz, Calif.) and anti-β-actin (#5125; 1/20,000) from Cell Signaling (Beverly, Mass.). The transfers were rinsed with TBS/0.05% Tween 20 and incubated for 1 hr at room temperature in horseradish peroxidase-goat anti-rabbit or goat anti-mouse (Biorad, Hercules, Calif.) diluted 1/5000 in 5% nonfat milk in TBS/0.1% Tween 20. The immunoblots were developed with the Super Signal reagent (Pierce, Rockford, Ill.).
The transcription factor Nrf2 plays a key role in regulating GSH metabolism in many different cell types (Lewerenz, et al., Antioxidant & Redox Signaling. (2011) 14, 1449-1465). We have shown that Fisetin can induce Nrf2 and this correlates with its ability to enhance GSH levels (Maher, P. et al., Genes. Nutr. (2009) September 10). To determine if the derivatives which can maintain GSH levels do so by increasing Nrf2 we looked at Nrf2 levels in the nuclei of derivative-treated cells using Fisetin as a positive control (Table 4). […] This was particularly true for the derivatives based on the quinoline scaffold where none of them increased Nrf2 despite being very effective at maintaining GSH levels.

O=c1c(O)c(-c2ccc(O)c(O)c2)oc2ccccc12 [CMS-04P, reference compound]
GSH (ability to maintain GSH) (HT22 cells): yes | PC12 diff'n (ability to induce PC12 cell differentiation) (PC12 cells): yes | TEAC [1]: 2 | Nrf2 (ability to induce the transcription factor Nrf2) (Nrf2): Yes

COc1cc(-c2ccc(O)c(O)c2)nc2ccccc12 [CMS-007, 4-methoxy-2-(3,4-dihydroxyphenyl) quinoline]
GSH (ability to maintain GSH) (HT22 cells): yes | PC12 diff'n (ability to induce PC12 cell differentiation) (PC12 cells): no | TEAC [1]: 0.36 | Nrf2 (ability to induce the transcription factor Nrf2) (Nrf2): No

Cc1cc(O)c(C(=O)/C=C/c2ccc(O)c(O)c2)cc1C [CMS-011, (E)-3-(3,4-dihydroxyphenyl)-1-(2-hydroxy-4,5-dimethylphenyl)prop-2-en-1-one]
GSH (ability to maintain GSH) (HT22 cells): yes | PC12 diff'n (ability to induce PC12 cell differentiation) (PC12 cells): yes | TEAC [1]: 2.7 | Nrf2 (ability to induce the transcription factor Nrf2) (Nrf2): Yes

CCOc1cc(-c2ccc(O)c(O)c2)nc2ccccc12 [CMS-023, 4-ethoxy-2-(3,4-dihydroxyphenyl) quinoline]
GSH (ability to maintain GSH) (HT22 cells): yes | PC12 diff'n (ability to induce PC12 cell differentiation) (PC12 cells): yes | TEAC [1]: 0.90 | Nrf2 (ability to induce the transcription factor Nrf2) (Nrf2): No

CC(C)Oc1cc(-c2ccc(O)c(O)c2)nc2ccccc12 [CMS-024, 4-isopropoxy-2-(3,4-dihydroxyphenyl) quinoline]
GSH (ability to maintain GSH) (HT22 cells): yes | PC12 diff'n (ability to induce PC12 cell differentiation) (PC12 cells): yes | TEAC [1]: 0.18 | Nrf2 (ability to induce the transcription factor Nrf2) (Nrf2): No

O=C(/C=C/c1ccc(O)c(O)c1)c1ccc2ccccc2c1O [CMS-034, (E)-3-(3,4-dihydroxyphenyl)-1-(1-hydroxynaphthalen-2-yl)prop-2-en-1-one]
GSH (ability to maintain GSH) (HT22 cells): yes | PC12 diff'n (ability to induce PC12 cell differentiation) (PC12 cells): yes | TEAC [1]: 2.8 | Nrf2 (ability to induce the transcription factor Nrf2) (Nrf2): Yes

O=c1c(O)c(-c2ccc(O)c(O)c2)oc2c1ccc1ccccc12 [CMS-040, 2-(3,4-dihydroxyphenyl)-3-hydroxy-4H-benzo[h]chromen-4-one]
GSH (ability to maintain GSH) (HT22 cells): no | PC12 diff'n (ability to induce PC12 cell differentiation) (PC12 cells): yes | TEAC [1]: 2.4

COc1cc(-c2oc3cc(C)c(C)cc3c(=O)c2O)ccc1OCc1ccccc1 [CMS-059, 2-(4-(benzyloxy)-3-methoxyphenyl)-3-hydroxy-6,7-dimethyl-4H-chromen-4-one]
GSH (ability to maintain GSH) (HT22 cells): no | PC12 diff'n (ability to induce PC12 cell differentiation) (PC12 cells): no | TEAC [1]: 0.27

COc1cc(-c2oc3cc(C)c(C)cc3c(=O)c2O)ccc1O [CMS-069, 3-hydroxy-2-(4-hydroxy-3-methoxyphenyl)-6,7-dimethyl-4H-chromen-4-one]
GSH (ability to maintain GSH) (HT22 cells): no | PC12 diff'n (ability to induce PC12 cell differentiation) (PC12 cells): no | TEAC [1]: 1.89

COc1ccc(/C=C/C(=O)c2cc(C)c(C)cc2O)cc1OCc1ccccc1 [CMS-086, (E)-3-(3-(benzyloxy)-4-methoxyphenyl)-1-(2-hydroxy-4,5-dimethylphenyl)prop-2-en-1-one]
GSH (ability to maintain GSH) (HT22 cells): yes | PC12 diff'n (ability to induce PC12 cell differentiation) (PC12 cells): yes | TEAC [1]: 0.12 | Nrf2 (ability to induce the transcription factor Nrf2) (Nrf2): Yes

Cc1cc2oc(-c3ccc(N(C)C)cc3)c(O)c(=O)c2cc1C [CMS-117, 2-(4-(dimethylamino)phenyl)-3-hydroxy-6,7-dimethyl-4H-chromen-4-one]
GSH (ability to maintain GSH) (HT22 cells): yes | PC12 diff'n (ability to induce PC12 cell differentiation) (PC12 cells): no | TEAC [1]: 3 | Nrf2 (ability to induce the transcription factor Nrf2) (Nrf2): No

CN(C)c1ccc(-c2oc3c(ccc4ccccc43)c(=O)c2O)cc1 [CMS-118, 2-(4-(dimethylamino)phenyl)-3-hydroxy-4H-benzo[h]chromen-4-one]
GSH (ability to maintain GSH) (HT22 cells): yes | PC12 diff'n (ability to induce PC12 cell differentiation) (PC12 cells): no | TEAC [1]: 0.93 | Nrf2 (ability to induce the transcription factor Nrf2) (Nrf2): No

Oc1ccc(-c2cc(OC3CCCC3)c3ccccc3n2)cc1O [CMS-121, 4-cyclopentyloxy-2-(3,4-dihydroxyphenyl) quinoline]
GSH (ability to maintain GSH) (HT22 cells): yes | PC12 diff'n (ability to induce PC12 cell differentiation) (PC12 cells): yes | TEAC [1]: 0.40 | Nrf2 (ability to induce the transcription factor Nrf2) (Nrf2): No

Cc1cc2oc(-c3ccc(N4CCCC4)cc3)c(O)c(=O)c2cc1C [CMS-122, 3-hydroxy-6,7-dimethyl-2-(4-(pyrrolidin-1-yl)phenyl)-4H-chromen-4-one]
GSH (ability to maintain GSH) (HT22 cells): yes | PC12 diff'n (ability to induce PC12 cell differentiation) (PC12 cells): yes | TEAC [1]: 2.4 | Nrf2 (ability to induce the transcription factor Nrf2) (Nrf2): No

O=c1c(O)c(-c2ccc(N3CCCC3)c(O)c2)oc2c1ccc1ccccc12 [CMS-140, 3-hydroxy-2-(3-hydroxy-4-(pyrrolidin-1-yl)phenyl)-4H-benzo[h]chromen-4-one]
GSH (ability to maintain GSH) (HT22 cells): Yes | PC12 diff'n (ability to induce PC12 cell differentiation) (PC12 cells): Yes | TEAC [1]: 2.1 | Nrf2 (ability to induce the transcription factor Nrf2) (Nrf2): No

O=c1c(O)c(-c2ccc(O)c(O)c2)oc2cc(O)ccc12 [Fisetin, 3,7,3′,4′-Tetrahydroxyflavone, reference compound]
GSH (ability to maintain GSH) (HT22 cells): yes | PC12 diff'n (ability to induce PC12 cell differentiation) (PC12 cells): yes | TEAC [1]: 3 | Nrf2 (ability to induce the transcription factor Nrf2) (Nrf2): Yes
